Test results taken from patent US20060089371A1, “Phenyl or heteroaryl amino alkane derivatives as ip receptor antagonist” (Bayer HealthCare AG, priority 2002, published 2006).
pIC50: −log10 of the molar value.

Tests used:
IP receptor = target: T1, IP receptor (Homo sapiens, UniProt P43119); assay: IP receptor binding/cAMP in HEL cells ([3H]-iloprost binding, Assay 1; iloprost-induced cAMP production, Assay 2); conditions: compounds of about 40 to 90% purity, read-out: In vitro activity grade (IC50 class)
T1 construct: one million cells in 160 μl aliquot of cell suspension were put in a well of 96 well plate; host or cells: HEL 92.1.7 human erythroleukemia cells (whole cells)
T1 sequence (P43119 whole entry): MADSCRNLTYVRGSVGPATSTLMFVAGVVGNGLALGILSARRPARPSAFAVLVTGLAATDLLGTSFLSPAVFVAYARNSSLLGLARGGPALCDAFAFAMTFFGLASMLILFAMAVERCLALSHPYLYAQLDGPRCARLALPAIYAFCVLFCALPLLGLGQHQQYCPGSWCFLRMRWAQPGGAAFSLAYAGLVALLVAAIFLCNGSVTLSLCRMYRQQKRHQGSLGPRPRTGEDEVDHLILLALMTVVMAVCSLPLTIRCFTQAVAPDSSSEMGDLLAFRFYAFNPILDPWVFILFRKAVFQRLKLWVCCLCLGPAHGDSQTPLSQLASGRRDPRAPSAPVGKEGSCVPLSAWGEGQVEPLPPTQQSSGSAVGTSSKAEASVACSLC
Summary of the method: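 For binding (Assay 1), 1×10^6 HEL 92.1.7 cells in 50 mM Tris-HCl, 5 mM MgCl2, pH 7.5 were incubated with [3H]-iloprost (0.02 μCi) for 30 min at RT and filter-counted; a 100 μM iloprost solution defined non-specific binding. Compounds were of 40-90% purity.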

SMILES | pIC50 (IP receptor) | melting point
O=C(O)C(Cc1ccccc1)Nc1cc(-c2ccc(-c3cccc4ccccc34)cc2)ncn1 (stereo not shown) [Example 11-7] | 6.00 to 7.00 | 135 to 138 °C (dec.)
O=C(O)C(Cc1ccccc1)Nc1cc(-c2ccc(-c3cccc([N+](=O)[O-])c3)cc2)ncn1 (stereo not shown) [Example 11-9] | > 7.00 | 125 to 127 °C (dec.)
COc1ccccc1-c1ccc(-c2cc(NC(Cc3ccccc3)C(=O)O)ncn2)cc1 (stereo not shown) [Example 11-10] | 6.00 to 7.00 | 121 to 123 °C (dec.)
CC(C)(C)OC(=O)Nc1ccc(-c2cc(NC(Cc3ccccc3)C(=O)O)ncn2)cc1 (stereo not shown) [Example 14-2] | 6.00 to 7.00 | 153 to 155 °C (dec.)
O=C(Cc1ccccc1)Nc1ccc(-c2cc(NC(Cc3ccccc3)C(=O)O)ncn2)cc1 (stereo not shown) [Example 14-3] | 6.00 to 7.00 | 145 to 148 °C (dec.)
O=C(c1ccccc1)c1ccc(-c2cc(N[C@@H](Cc3ccccc3)C(=O)O)ncn2)cc1 [Example 17-1, N-[6-(4-Benzoylphenyl)pyrimidin-4-yl]phenylalanine] | > 7.00 | 109 to 111 °C
O=C(c1ccc(-c2cc(NC(Cc3ccccc3)C(=O)O)ncn2)cc1)C1CCCCC1 (stereo not shown) [Example 17-2] | 6.00 to 7.00 | 116 to 119 °C
O=C(c1ccc(-c2cc(NC(Cc3ccccc3)C(=O)O)ncn2)cc1)C1CCCC1 (stereo not shown) [Example 17-3] | > 7.00 | 114 to 116 °C
O=C(c1ccc(Cl)cc1)c1ccc(-c2cc(NC(Cc3ccccc3)C(=O)O)ncn2)cc1 (stereo not shown) [Example 17-5] | > 7.00 | 123 to 126 °C
O=C(O)C(Cc1ccccc1)Nc1cc(-c2ccc(Cc3ccc(F)cc3)cc2)ncn1 (stereo not shown) [Example 18-2] | 6.00 to 7.00 | 98 to 101 °C
O=C(O)C(Cc1ccccc1)Nc1cc(-c2ccc(CN3CCc4ccccc4C3)cc2)ncn1 (stereo not shown) [Example 19-4] | < 6.00 | 148 to 150 °C
O=C(O)[C@H](Cc1ccccc1)Nc1cc(-c2ccc(/C=N/Oc3ccccc3)cc2)ncn1 [Example 21-1, N-(6-{4-[(E)-(phenoxyimino)methyl]phenyl}pyrimidin-4-yl)phenylalanine] | > 7.00 | 152.8 °C
O=Cc1c(N[C@@H](Cc2ccccc2)C(=O)O)ncnc1-c1ccc(OCc2ccccc2)cc1 [Example 22-1, N-{6-[4-(Benzyloxy)phenyl)-5-formylpyrimidin-4-yl}phenylalanine] | 6.00 to 7.00 | > 300 °C
O=C(O)[C@H](Cc1ccccc1)Nc1ncnc(-c2ccc(OCc3ccccc3)cc2)c1CO [Example 23-1, N-[6-[4-(Benzyloxy)phenyl]-5-(hydroxymethyl)pyrimidin-4-yl]phenylalanine] | 6.00 to 7.00 | 114 to 117 °C
COc1cccc(COc2ccc(-c3cccc(N[C@@H](Cc4ccccc4)C(=O)O)c3)cc2)c1 [Example 24-2, N-{4′-[(3-Methoxybenzyl)oxy]biphenyl-3-yl}phenylalanine] | > 7.00 | 159 to 162 °C
O=C(O)C(Cc1ccccc1)Nc1cccc(-c2ccc(OCc3ccccc3F)cc2)c1 (stereo not shown) [Example 24-4] | > 7.00 | 158 to 161 °C
O=C(O)C(Cc1ccccc1)Nc1cccc(-c2ccc(OCc3cccc(F)c3)cc2)c1 (stereo not shown) [Example 24-5] | > 7.00 | 167 to 169 °C
O=C(O)C(Cc1ccccc1)Nc1cccc(-c2ccc(OCc3ccc(F)cc3)cc2)c1 (stereo not shown) [Example 24-6] | 6.00 to 7.00 | 175 to 178 °C
O=C(O)C(Cc1ccccc1)Nc1cc(-c2ccc(OCC3CC3)nc2)ncn1 (stereo not shown) [Example 25-3] | > 7.00 | 113 to 114 °C
c1ccc(COc2ccc(-c3cc(NC(Cc4ccccc4)c4nnn[nH]4)ncn3)cc2)cc1 (stereo not shown) [Example 27-1, 6-[4-(Benzyloxy)phenyl]-N-[2-phenyl-1-(1H-tetrazol-5-yl)ethyl)pyrimidin-4-amine] | > 7.00 | 150 °C

Further lines, results first:

pIC50 (IP receptor) | melting point | SMILES
6.00 to 7.00 | 120 to 123 °C (dec.) | O=C(O)C(Cc1ccccc1)Nc1cc(-c2ccc(-c3ccc(Oc4ccccc4)cc3)cc2)ncn1 (stereo not shown) [Example 11-11]
6.00 to 7.00 | 120 to 123 °C | COc1cc(-c2ccc(-c3cc(NC(Cc4ccccc4)C(=O)O)ncn3)cc2)cc(OC)c1OC (stereo not shown) [Example 11-12]
6.00 to 7.00 | 250 to 252 °C (dec.) | O=C(Nc1ccc(-c2cc(N[C@@H](Cc3ccccc3)C(=O)O)ncn2)cc1)c1ccccc1 [Example 14-1, N-{6-[4-(Benzoylamino)phenyl]pyrimidin-4-yl}phenylalanine]
< 6.00 | 217 to 220 °C (dec.) | O=C(O)C(Cc1ccccc1)Nc1cc(-c2ccc(NS(=O)(=O)c3ccc(F)cc3)cc2)ncn1 (stereo not shown) [Example 15-2]
> 7.00 | 115 to 117 °C | O=C(c1ccc(F)cc1)c1ccc(-c2cc(NC(Cc3ccccc3)C(=O)O)ncn2)cc1 (stereo not shown) [Example 17-4]
6.00 to 7.00 | 105 to 107 °C | O=C(O)C(Cc1ccccc1)Nc1cc(-c2ccc(Cc3ccc(Cl)cc3)cc2)ncn1 (stereo not shown) [Example 18-3]
6.00 to 7.00 | 173 to 176 °C (dec.) | O=C(O)C(Cc1ccccc1)Nc1cc(-c2ccc(CNCc3ccccc3)cc2)ncn1 (stereo not shown) [Example 19-2]
> 7.00 | 81 to 84 °C | O=C(O)C(Cc1ccccn1)Nc1cc(-c2ccc(COc3ccccc3)cc2)ncn1 (stereo not shown) [Example 20-2]
> 7.00 | 152 to 154 °C | O=C(O)[C@H](Cc1ccccc1)Nc1cccc(-c2ccc(OCc3ccccc3)cc2)c1 [Example 24-1, N-[4′-(Benzyloxy)biphenyl-3-yl]phenylalanine]
> 7.00 | 166 to 168 °C | COc1cc(COc2ccc(-c3cccc(NC(Cc4ccccc4)C(=O)O)c3)cc2)cc(OC)c1 (stereo not shown) [Example 24-3]
> 7.00 | 182 to 185 °C | O=C(O)C(Cc1ccccc1)Nc1cccc(-c2ccc(OCCn3cccc3)cc2)c1 (stereo not shown) [Example 24-7]
> 7.00 | 130 to 133 °C | O=C(O)[C@H](Cc1ccccc1)Nc1cc(-c2ccc(OCc3ccccc3)nc2)ncn1 [Example 25-1, N-{6-[6-(benzyloxy)pyridin-3-yl]pyrimidin-4-yl}phenylalanine]
6.00 to 7.00 | 150 to 153 °C | O=C(O)C(Cc1ccccc1)Nc1cccc(-c2ccc(OCc3ccccc3)nc2)c1 (stereo not shown) [Example 25-2]
> 7.00 | 235 to 239 °C | O=C(NO)C(Cc1ccccc1)Nc1cc(-c2ccc(OCc3ccccc3)cc2)ncn1 (stereo not shown) [Example 26-1, N-{6-[4-(Benzyloxy)phenyl]pyrimidin-4-yl}-N-hydroxyphenylalaninamide]
> 7.00 | 137 to 139 °C | O=C(O)[C@H](Cc1ccccc1)Nc1ccnc(-c2ccc(OCc3ccccc3)cc2)c1 [Example 28-1, N-{2-[4-(Benzyloxy)phenyl]pyridin-4-yl}phenylalanine]
